Reference: article PMC12579162, “Synthesized Depside Molecules Suppress the Progression of Colorectal Cancer by Binding VDAC1/PHB/MMP9 Being at the Crossroads of Stemness, Motility, Apoptosis, and Metabolism” (MedComm, 2025)
Where two headings read alike, the source gives them in different places.

Columns and labels:
CSC221 cells = test: MTT cell viability, CSC221; assay type: cell-based; conditions: Homo sapiens; 48 h, MTT assay
Experimental: (§1) Cells (3 × 10^3 cells/well) were seeded on a 96‐well plate, grown overnight, and then treated with compounds at indicated concentrations for 48 h. After incubation with MTT for 4 h at 37°C, cells were lysed with 150 µL of DMSO (Sigma–Aldrich, St. Louis, USA). Absorbance was measured at 570 nm on a microplate reader with the Gen5 software (v.2.03.1; BioTek, Winooski, VT, USA).

HaCaT cells = test: MTT cell viability, HaCaT; assay type: cell-based; conditions: Homo sapiens, 48 h, MTT assay
Experimental: as §1

HEK293T cells = test: MTT cell viability, HEK293T; assay type: cell-based; conditions: Homo sapiens, HEK-293T; 48 h, MTT assay
Experimental: as §1

NIH3T3 cells = test: MTT cell viability, NIH3T3; assay type: cell-based; conditions: Mus musculus, 48 h, MTT assay
Experimental: as §1

[1] = Tissue distribution in CT26 tumor-bearing mice (LC–MS/MS); assay type: in vivo; conditions: Balb/c mice, 10 mg/kg; for distribution in tumor and intestines: 24 h, compared with TU and DA; for concentration at 24 h: mouse
Experimental: Concentrations of TU, DA, SB4, and SB5 in tissues (liver, intestine, and tumor) and plasma were measured using LC–MS/MS. Samples were prepared by 40 µL of plasma or the supernatant separated from the tissue pellet and added 120 µL of acetonitrile (ACN) containing internal standard (IS). The samples were vortexed, sonicated for 30 min, and then left on ice for 15 min. Subsequently, the samples were centrifuged at 3000×g for 20 min, and the supernatant was analyzed. Calibration curves were prepared by matrix matched with tissue supernatants‐treated DMSO. The standard concentrations were set at 0, 62.5, 250, and 1000 nM for each compound. The LC–MS/MS system comprised a 40D‐XS UHPLC system (Shimadzu), and API 4000 mass spectrometer equipped with a Turbo V IonSpray source (Applied Biosystems). The sample separation was performed on a Waters Atlantis dC18 column (2.1 × 100 mm, 3 µm) using a mobile phase consisting of 0.1% formic acid in water (mobile phase A) and 0.1% formic acid in ACN (mobile phase B). A linear gradient of the two solvents was used (0 min, 0% B; 4 min, 50% B; 7 min, 95% B; 8 min, 0% B), and the equilibration time was 2 min. The flow rate was set at 0.4 mL/min, the column temperature was maintained at 30°C, and the injection volume was 10 µL.
MS/MS analysis was conducted in multiple reaction monitoring (MRM). In positive ion mode transitions were set for DA (m/z 375 → 193), SB4 (m/z 447 → 193), SB5 (m/z 461 → 193), and the IS carbamazepine (100 nM, m/z 237 → 197). In negative ion mode, MRM transitions were monitored for TU (m/z 339 → 217) and the IS 4‐methylumbelliferone (300 nM, m/z 175 → 133). The Turbo V Ion Spray interface was operated in 5500 V (pos) or −4500 V (neg), with a source temperature of 600°C. Nebulizing gas flow, auxiliary gas flow, and curtain gas flow were set at 50, 40, and 30 L/min, respectively, while the collision gas pressure was maintained at 3.4 × 10^−⁵ Torr. Data were analyzed by analyst 1.6.2 (AB Sciex, Framingham, USA).

[2] = test system: CRC cells (CaCo2, DLD1, HCT116, HT29, and SW620); test: Spheroid formation assay, CRC cell lines; assay type: cell-based, human; conditions: 2.5 and 5 µM, 10–14 days
Experimental: (§2) Monolayer cells were separated into single‐cell suspensions at around 70% confluence using a solution of trypsin. After that, the cells were added to N2‐supplemented DMEM/F12 that contained human basal fibroblast growth factor and human recombinant epidermal growth factor. Cells seeded at a density of 5 × 10^3 cells/well in ultra‐low attachment 24‐well plates (Corning Inc., Corning, NY, USA). After 10–14 days of culture, spheres were quantitated by inverted phase contrast microscopy. The relative sphere formation ability was calculated through the IMT iSolution software (IMT iSolution Inc., Northampton, NJ, USA) measuring the pixel intensity of the sphere area randomly in each plate.

MCF10A cells = test: Spheroid formation assay, MCF10A; assay type: cell-based, human; conditions: noncancerous MCF10A, 10–14 days
Experimental: as §2

[3] = test system: MMP9 promoter in HEK293T cells; test: MMP9 promoter reporter assay; assay type: cell-based, human; conditions: 2.5 and 5 µM, 24 h
Experimental: HEK293T was plated in a 24-well plate, left to attach, and then transfected with 100 ng of AP-1, STAT, Gli, CSL, TOPFLASH (with 100 ng β-catenin), NF-kB, Hes-1 and MMP9 reporter plasmids with 2 ng of Renilla-luc (pRL-TK) plasmid. MMP9 reporter assays were tested by stimulating Gli1-Flag, Gli2-Flag, ΔEN1-Myc, and MYC-flag plasmids. Transfections were performed using the X-treme GENE 9 DNA transfection reagent (Roche, Werk Penzberg, Germany). After 24 hours transfection, cells were treated with compounds or DMSO and incubated for 24 h at 37 °C under 5% CO2. The Dual-Luciferase reporter assay system (Promega, Madison, WI, USA) was used.

CT26–iRFP cells = test: CT26–iRFP derived tumor growth model; assay type: in vivo, BALB/C mice; conditions: 5, 10, or 20 mg/kg intraperitoneally every other day
Experimental: The antitumor efficacy of VDAC1/PHB/MMP‐binding compound was evaluated using a xenograft model. Six‐week‐old male BALB/C mice were obtained from OrientBio. 1 × 10⁶ CT26 cells were subcutaneously implanted to each mouse. After 1 week inoculation, mice were treated with intraperitoneal injections of either vehicle (DMSO/PBS) or SB4 at a dose of 5, 10 and 20 mg/kg, administered every other day. Tumor volumes and body weight was measured every 2 days. Bioimaging of near‐infrared fluorescence was obtained using a FOBI system (Cellgentek, Osong, Korea) for three time point. After euthanizing the mice, tumor tissues were successfully collected, and the tumor weight was measured for each sample. According to the Guiding Principles in the Care and Use of Animals (DHEW publication, NIH 80–23), the in vivo experiments were performed with the approval of the Sunchon National University Research Institutional Animal Care and Use Committee (SCNU IACUC‐2024‐17).

[4] = liver, read-out: concentration in liver
[5] = plasma, read-out: quantity in plasma

concentration at 24 h [1, 4] [nM] | concentration at 24 h [1, 5] [nM] | Structure (SMILES) | IC50 (CSC221 cells) [µM] | IC50 (HaCaT cells) [µM] | IC50 (HEK293T cells) [µM] | IC50 (NIH3T3 cells) [µM] | distribution in tumor and intestines [1] | spheroid formation [2] | spheroid formation (MCF10A cells) | MMP9 promoter activity [3] | mouse body weight (CT26–iRFP cells) | tumor volume and weight (CT26–iRFP cells; versus control)
1 to 2 | < 2 | COCCCOc1c(C)c(OC(=O)c2c(C)cc(OC)c(C)c2OC)cc(C)c1C(=O)OC [SB5, 4-(Methoxycarbonyl)-3-(3-methoxypropoxy)-2,5-dimethylphenyl 2,4-dimethoxy-3,6-dimethylbenzoate] | 131 | 70.7 | 63.2 | 112 | bioavailability is improved compared with TU and DA | suppressed spheroid formation | did not change the inhibition or induction of spheroid formation in a statistically significant way | downregulated |  | 
1 to 2 | < 2 | COCCOc1c(C)c(OC(=O)c2c(C)cc(OC)c(C)c2OC)cc(C)c1C(=O)OC [SB4, 4-(Methoxycarbonyl)-3-(2-methoxyethoxy)-2,5-dimethylphenyl 2,4-dimethoxy-3,6-dimethylbenzoate] | 60 | 26.7 | 19 | 121 | bioavailability is improved compared with TU and DA | suppressed spheroid formation | did not change the inhibition or induction of spheroid formation in a statistically significant way | downregulated | did not influence mouse body weight | significantly reduced both tumor volume and weight in a dose‐dependent manner
